{
  "source": "patent US20090087894A1",
  "about": "“Method for improving enzymatic activity of glycosyltransferases” (Japan Tobacco Inc., priority 2004, published 2009)",
  "key": {"[1]": {"system": "glycosyltransferase (crude α2,6-sialyltransferase) of P. damsela ATCC33539", "assay": "Effect of NaCl on activity of crude α2,6-sialyltransferase from P. damselae ATCC33539", "type": "biochemical, Photobacterium damselae", "protocol": "(§1) ATCC33539T and ATCC35083, which were strains belonging to Photobacterium damselae but different from JT0160, were cultured and the resulting cells were used to prepare crude enzyme solutions according to the procedure for preparing a crude enzyme solution of P. damselae JT0160 (Purification and characterization of a Marine bacterial β-Galactoside α2,6-Sialyltransferase from Photobacterium damselae JT0160 J. Biochem. 120, 104-110, 1996). These crude enzymes were used in the following experiment.\n(§2) The enzyme reaction was accomplished in 20 μl reaction solution containing CMP-^14C-NeuAc as a glycosyl donor substrate (50.066 nmol, 25000 cpm), lactose as a glycosyl acceptor substrate (1 mmol), glycosyltransferase derived from various strains (1 mU or less) and NaCl at a concentration of 0.5 M (30° C., 1 minute). After completion of the enzymatic reaction, the radioactivity of NeuAc which was transferred to lactose under the respective conditions was measured to calculate the enzyme activity, thereby studying the effect of NaCl on the enzyme activity in each test range. More specifically, after completion of the reaction, each reaction solution was supplemented with 1.98 ml of 5 mM phosphate buffer (pH 6.8) and applied to a AG1−×2Resin (PO4^3− form, 0.2×2 cm) column. […] The eluate (0 to 2 ml) from this column was measured for its radioactivity."}, "[2]": {"system": "glycosyltransferase (crude α2,6-sialyltransferase) of P. damsela ATCC35083", "assay": "Effect of NaCl on activity of crude α2,6-sialyltransferase from P. damselae ATCC35083", "type": "biochemical, Photobacterium damselae", "protocol": "as §1, §2"}, "[3]": {"biological_target": "T1, deletion mutant of recombinant α2,6-sialyltransferase; N2C1, derived from P. damselae JT0160 (Photobacterium damselae, UniProt O66375)", "T1 construct": "lacks the N-terminal (Met) 107 amino acid residues and the C-terminal 176 amino acid residues; made in house; host or cells: E. coli, crude enzyme solution", "T1 sequence (O66375 entry or part of it, stated change not applied)": "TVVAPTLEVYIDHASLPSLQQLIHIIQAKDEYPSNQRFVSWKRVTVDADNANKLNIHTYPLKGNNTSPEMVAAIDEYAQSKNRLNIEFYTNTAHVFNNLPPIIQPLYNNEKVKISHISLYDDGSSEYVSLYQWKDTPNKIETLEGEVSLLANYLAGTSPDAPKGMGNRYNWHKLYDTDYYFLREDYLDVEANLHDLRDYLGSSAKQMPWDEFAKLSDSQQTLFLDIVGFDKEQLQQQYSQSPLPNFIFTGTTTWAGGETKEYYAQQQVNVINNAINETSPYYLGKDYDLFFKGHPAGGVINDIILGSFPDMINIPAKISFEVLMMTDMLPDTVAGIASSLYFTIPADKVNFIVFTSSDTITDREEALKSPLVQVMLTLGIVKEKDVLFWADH", "assay": "Effect of NaCl on enzyme activity of deletion mutant of recombinant α2,6-sialyltransferase N2C1", "type": "biochemical", "conditions": "0.2 to 1.5 M NaCl in the reaction solution; FIG. 4", "protocol": "The transformed E. coli cells were cultured at 30° C. at 180 rpm for 12 hours in L Broth (containing ampicillin at a final concentration of 0.2 mg/ml and IPTG at a final concentration of 1 mM), followed by centrifugation to collect the cells. The collected cells were suspended in 20 mM sodium cacodyrate buffer (pH 5.0) and then ultrasonicated at 4° C. to homogenize the cells, thereby preparing a crude enzyme solution containing a sialyltransferase protein from the N2C1 gene. […] This N2C1 gene-derived sialyltransferase protein was used in the following experiment.\nThe enzyme reaction was accomplished in 20 μl reaction solution containing CMP-^14C-NeuAc as a glycosyl donor substrate (50.066 nmol, 25000 cpm), lactose as a glycosyl acceptor substrate (1 mmol), N2C1 (0.5 to 1.5 mU) and NaCl at a concentration varying from 0 to 2.5 M (30° C., 1 minute). After completion of the enzyme reaction, the radioactivity of NeuAc which was transferred to lactose under the respective conditions was measured to calculate the enzyme activity, thereby studying the effect of NaCl on the enzyme activity in each test range.\nMore specifically, after completion of the reaction, each reaction solution was supplemented with 1.98 ml of 5 mM phosphate buffer (pH 6.8) and applied to a AG1−×2Resin (PO43-form, 0.2×2 cm) column. […] The eluate (0 to 2 ml) from this column was measured for its radioactivity."}, "[4]": {"assay": "Confirmation of α2,3-sialyltransferase activity with pyridylaminated lactose as glycosyl acceptor, HPLC", "type": "biochemical", "conditions": "pyridylaminated lactose and CMP-sialic acid, 25° C.", "description": "Determination of the binding mode of sialic acid was accomplished by using a pyridylaminated sugar chain. The resulting enzyme was used to carry out an enzymatic reaction in the presence of a pyridylaminated sugar chain as a glycosyl acceptor substrate. The pyridylaminated sugar chain used for analysis was pyridylaminated lactose (Galβ1, 4Glc-PA, PA-Sugar Chain 026, Takara Bio Inc., Japan). As a standard, pyridylaminated α2,3sialyllactose (NeuAcα2,3Galβ1, 4Glc-PA, PA-Sugar Chain 029, Takara Bio Inc., Japan) was used. The glycosyl acceptor substrate, CMP-NeuAc and the enzyme were dissolved at 2.0 mM, 5.7 μM and about 20 mU/ml, respectively, in 25 μl of 20 mM cacodylate buffer (pH 6.0) or Bis-Tris buffer (pH 6.0), and then reacted at 25° C. for 3 to 18 hours. After completion of the reaction, the reaction solution was treated at 100° C. for 2 minutes to deactivate the enzyme, followed by HPLC to analyze the reaction product.\nThe HPLC system used was, Shimadzu LC10A (Shimadzu Corporation, Japan) and the analytical column used was Takara PALPAK Type R (Takara Bio Inc., Japan). The column which had been equilibrated with 100 mM acetate-triethylamine (pH 5.0) containing 0.15% N-butanol was injected with the reaction solution diluted with Eluent A (100 mM acetate-triethylamine, pH 5.0). For elution of the pyridylaminated sugar chain, Eluent A (100 mM acetate-triethylamine, pH 5.0) and Eluent B (100 mM acetate-triethylamine containing 0.5% n-butanol, pH 5.0) were used to successively elute the pyridylaminated sugar chain with a linear gradient of 30% to 100% Eluent B (0 to 35 minutes) and then 100% Eluent B (35 to 50 minutes). The analysis was performed under the following conditions: flow rate: 1 ml/min, column temperature: 40° C., detection: fluorescence (Ex: 320 nm, Em: 400 nm).\nAs in the case of Reference Example 1-1, pyridylaminated lactose was used as a glycosyl acceptor to carry out the enzyme reaction. After completion of the reaction, the reaction solution was thermally treated at 95° C. for 5 minutes to deactivate the enzyme, followed by HPLC analysis. It should be noted that the enzyme reaction was accomplished at 25° C. for 6 hours using pyridylaminated lactose and CMP-sialic acid dissolved at 2.0 μM and 5.7 μM, respectively, in 25 μl of 20 mM cacodylate buffer (pH 6.0) (Reaction 1). On the other hand, a control experiment (Reaction 2) was carried out using a reaction solution free from CMP-sialic acid. Further, to clarify the retention time of standards, the crude enzyme solution was deactivated by thermal treatment (95° C., 5 minutes) and tested in the presence of pyridylaminated lactose and pyridylaminated α2,3-sialyllactose."}},
  "data": [
    {"molecule": "[Cl-].[Na+]", "note": "[NaCl]", "values": [
      {"measurement": "Radioactivity", "setting": "[1]; +NaCl, 0.5 M, 30° C., 1 minute", "value": 11071},
      {"measurement": "+NaCl/−NaCl", "setting": "[1]; NaCl 0.5 M", "value": 1.2},
      {"measurement": "Radioactivity", "setting": "[2]; +NaCl, 0.5 M, 30° C., 1 minute", "value": 9733},
      {"measurement": "+NaCl/−NaCl", "setting": "[2]; NaCl 0.5 M", "value": 1.3},
      {"measurement": "enzyme activity compared to the absence of NaCl", "setting": "[3]", "value": "activated"}
    ]},
    {"molecule": "224-N1C0: recombinant JT-ISH-224 α2,3-sialyltransferase lacking the signal peptide region, expressed in E. coli (protein, OTHER INFORMATION: /gene=“224-23ST” /product=“beta-galactoside-alpha-2,3-sialyltransferase”, recombinant JT-ISH-224 α2,3-sialyltransferase lacking the signal peptide region, expressed in E. coli) MLVFCKKMFFSVFISLMILGGCNSDSNHNNSDGNITKNKTIEVYVDRATLPTIQQMTQIINENSNNKKLISWSRYPINDEELLESINGSFFKNNSELIKSLDSMILTNDIKKVIINGNTLWAADVVNIIKSIEAFGKKTEIELNFYDDGSAEYVRLYDFSKLPESEQEYKISLSKDNILSSINGTQPFENVVENIYGFSQLYPTTYHMLRADIFETNLPLRSLKGVLSNNIKQMKWDYFKTFNSQQKDKFYNFTGFNPDEIMEQYKASPNKNFIFVGTNSGTATAEQQIDILTEAKNPNSPIITKSIQGFDLFFKGHPSATYNKQIIDAHNMIEIYNKIPFEALIMTDALPDAVGGMGSSVFFSLPNTVENKFIFYKSDTDIENNALIQVMIELNIVNRNDVKLISDLQ", "values": [
      {"measurement": "α2,3-sialyltransferase activity (formation of pyridylaminated α2,3-sialyllactose)", "setting": "[4]", "value": "a peak of pyridylaminated α2,3-sialyllactose was detected"}
    ]},
    {"molecule": "467-N2C0: recombinant JT-ISH-467 α2,3-sialyltransferase lacking the signal peptide region, expressed in E. coli (protein, OTHER INFORMATION: /gene=“467-23ST” /product=“beta-galactoside-alpha2,3-sialyltransferase”, recombinant JT-ISH-467 α2,3-sialyltransferase lacking the signal peptide region, expressed in E. coli) MFVFCKKIFFLIFISLMILGGCNSDSKHNNSDGNITKNKTIEVYVDRATLPTIQQMTQIINENSNNKKLISWSRYPINDETLLESINGSFFKNRPELIKSLDSMILTNEIKKVIINGNTLWAVDVVNIIKSIEALGKKTEIELNFYDDGSAEYVRLYDFSRLPESEQEYKISLSKDNIQSSINGTQPFDNSIENIYGFSQLYPTTYHMLRADIFETNLPLTSLKRVISNNIKQMKWDYFTTFNSQQKNKFYNFTGFNPEKIKEQYKASPHENFIFIGTNSGTATAEQQIDILTEAKKPDSPIITNSIQGLDLFFKGHPSATYNQQIIDAHNMIEIYNKIPFEALIMTDALPDAVGGMGSSVFFSLPNTVENKFIFYKSDTDIENNALIQVMIELNIVNRNDVKLISDLQ", "values": [
      {"measurement": "α2,3-sialyltransferase activity (formation of pyridylaminated α2,3-sialyllactose)", "setting": "[4]", "value": "had α2,3-sialyltransferase activity"}
    ]},
    {"molecule": "467-N0C0: recombinant full-length α2,3-sialyltransferase of Photobacterium phosphoreum JT-ISH-467 expressed in E. coli (protein, OTHER INFORMATION: /gene=“467-23ST” /product=“beta-galactoside-alpha2,3-sialyltransferase”, recombinant full-length α2,3-sialyltransferase of Photobacterium phosphoreum JT-ISH-467 expressed in E. coli) MFVFCKKIFFLIFISLMILGGCNSDSKHNNSDGNITKNKTIEVYVDRATLPTIQQMTQIINENSNNKKLISWSRYPINDETLLESINGSFFKNRPELIKSLDSMILTNEIKKVIINGNTLWAVDVVNIIKSIEALGKKTEIELNFYDDGSAEYVRLYDFSRLPESEQEYKISLSKDNIQSSINGTQPFDNSIENIYGFSQLYPTTYHMLRADIFETNLPLTSLKRVISNNIKQMKWDYFTTFNSQQKNKFYNFTGFNPEKIKEQYKASPHENFIFIGTNSGTATAEQQIDILTEAKKPDSPIITNSIQGLDLFFKGHPSATYNQQIIDAHNMIEIYNKIPFEALIMTDALPDAVGGMGSSVFFSLPNTVENKFIFYKSDTDIENNALIQVMIELNIVNRNDVKLISDLQ", "values": [
      {"measurement": "α2,3-sialyltransferase activity (formation of pyridylaminated α2,3-sialyllactose)", "setting": "[4]", "value": "found to have α2,3-sialyltransferase activity"}
    ]},
    {"molecule": "FAJ-N0C0: recombinant full-length α2,3-sialyltransferase of Vibrio sp. JT-FAJ-16 expressed in E. coli (protein, OTHER INFORMATION: /gene=“FAJ16-23ST” /product=“beta-galactoside-alpha2,3-sialyltransferase”, recombinant full-length α2,3-sialyltransferase of Vibrio sp; JT-FAJ-16 expressed in E. coli) MKNIITKRMLIILSSLFTIIGCNNDNSTTTNNNAIEIYVDRATLPTIQQMTKIVSQKTSNKKLISWSRYPITDKSLLKKINAEFFKEQFELTESLKNIILSENIDNLIIHGNTLWSIDVVDIIKEVNLLGKNIPIELHFYDDGSAEYVRIYEFSKLPESEQKYKTSLSKNNIKFSIDGTDSFKNTIENIYGFSQLYPTTYHMLRADIFDTTLKINPLRELLSNNIKQMKWDYFKDFNYKQKDIFYSLTNFNPKEIQEDFNKNSNKNFIFIGSNSATATAEEQINIISEAKKENSSIITNSISDYDLFFKGHPSATFNEQIINAHDMIEINNKIPFEALIMTGILPDAVGGMGSSVFFSIPKEVKNKFVFYKSGTDIENNSLIQVMLKLNLINRDNIKLISDI", "values": [
      {"measurement": "α2,3-sialyltransferase activity (formation of pyridylaminated α2,3-sialyllactose)", "setting": "[4]", "value": "a peak of pyridylaminated α2,3-sialyllactose was detected"}
    ]}
  ]
}
